Experimental data: patent publication US20240246960A1 (adMare Therapeutics Society, priority 2021, published 2024)
Read-outs that look alike come from different tables or passages of the source.

Experiments:
[1] = molecular target: T1, pDNA-PK ser2056 induction in HCT116 spheroids (Homo sapiens, UniProt P78527); experiment: Multicellular tumour spheroid + radiation, pDNA-PK inhibition, HCT116; format: cell-based; conditions: 20 Gy
T1 construct: endogenous in cells; host or cells: HCT116 multicellular tumour spheroids
Outline: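 EC50 (μM) is concentration halving radiation-induced pDNA-PK ser2056, scored by fluorescent immunostaining of cryosections 2 h after 20 Gy. HCT116 tumour spheroids (~0.5 mm, stirred, 20% O2/5% CO2, 37 °C) exposed to serial dilutions from 10 or 5 μM to 3.5 nM starting 1 h before irradiation.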

[2] = molecular target: T2, pDNA-PK ser2056 induction in FaDU spheroids (Homo sapiens, UniProt P78527); experiment: Multicellular tumour spheroid + radiation, pDNA-PK inhibition, FaDU; format: cell-based; conditions: 20 Gy
T2 construct: host or cells: FaDu
Procedure: (§1) Multicellular tumour spheroids determination of compound inhibition of pDNA-PK induction following radiation. Tumour spheroids were grown to approximately 0.5 mm in diameter and irradiated with 20 Gy in combination with inhibitor test compounds to determine their potency. Inhibitor concentration for 50% reduction in pDNA-PK induction (IC50) was determined via immunohistochemical staining in spheroid cryosections taken 2 hours following radiation. For cell survival endpoint 8 Gy radiation was used and 3 hours following radiation spheroids were dissociated, counted and plated for colony forming endpoint.
Spheroid+radiation pDNA-PK. Radiation: 20 Gy. Drug: serial dilution 5 or 10 μM down to 3.5 nM (11 wells). Spheroids: 3-6 spheroids per well (300-500 μm diameter). 20% O2 and 5% CO2. 96 well plate format. Endpoint: fluorescent immunostain pDNA-PK ser2056 and image on microscope. Analysis: determine EC50 concentrations that decreases pDNA-PK induction […] after irradiation.
(§2) Multicellular tumour spheroids were used to determine potency of test compounds in a 3D tissue environment using inhibition of pDNA-PK induction following radiation or cell survival as the endpoint. For the pDNA-PK endpoint HCT116 or FaDU tumour spheroids were grown to approximately 0.5 mm in diameter and irradiated with 20 Gy in combination with inhibitor test compounds to determine their potency. Experiments were carried out in 96 well plates containing 0.7 mls of MEM media containing 10% FBS and 10 mM glucose under 20% O2 & 5% CO2 at 37° C. Following dilution of compounds 1:1000 from DMSO stocks, compounds were serially diluted from 10 μM down to 3.5 nM and 5-10 spheroids added. 96 well plates were constantly stirred to avoid spheroids settling during the course of the experiment. The inhibitor concentration for 50% reduction in pDNA-PK induction (EC50) was determined via immunohistochemical staining in spheroid cryosections taken 2 hours following radiation using anti-pDNA-PK (ser 2056) and fixed immediately in formalin following sectioning. For cell survival endpoint 8 Gy radiation was used and, 3 hours following radiation, spheroids were dissociated, counted and plated for colony forming endpoint. Data presented in the table compound potency as EC50 [μM].

[3] = tested on: HCT116 spheroids; experiment: Spheroid + radiation colony forming cell survival assay (SF), HCT116; format: cell-based; conditions: Homo sapiens, HCT-116, 8 Gy
Procedure: as §1
Spheroid+radiation colony forming cell survival assay (SF). Radiation 8 Gy. Drug: serial dilution 5 μM down to 10 nM (12 wells×2 repeat). Spheroids: 5-10 spheroids per well ([…]). HCT116. 5% O2 and 5% CO2. 96 well pate format for assay. Protocol: pre incubate 1 hour with drug, irradiate 8 Gy, post incubate 3 hrs with drug, dissociate spheroids and count cells and plate for colony forming assay. Endpoint: wait 4-7 days and count colonies. Analysis: determine EC50 concentration that increase cell kill by 50% over radiation alone.
as §2

[4] = Microsomal stability assay, mouse liver microsomes; conditions: for microsomal CLint at 0.1 uM: male, CD-1, mouse, liver microsomes, pH 7.4, Microsomal Stability Mouse Clint
[5] = molecular target: T3, DNA-PK (Homo sapiens, UniProt P78527); experiment: DNA-PK Assay for Biochemical Enzymatic Inhibition (ADP Glo Kinase assay)
T3 construct: purchased Invitrogen PR9107A
Outline: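 Human DNA-PK (25 ng) preincubated 15 min with compounds (ten three-fold dilutions) in HEPES pH 7.5, MgCl2, KCl, calf thymus DNA buffer, then substrate 434.4 μM and ATP 64.4 μM (final) for 60 min at room temperature. ADP-Glo luminescence; percent inhibition fitted by four-parameter regression for IC50.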

[6] = molecular target: T4, DNA-PK phosphorylation at Serine 2056 (Homo sapiens, UniProt P78527); experiment: Cellular Assay for Inhibition of DNA-PK Phosphorylation at Serine 2056 (FaDu cells, neocarzinostatin, sandwich ELISA); format: cell-based
T4 construct: host or cells: FaDu
Outline: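 Readout was pSer2056 and total DNA-PK, measured by sandwich ELISA on protein-normalized lysates. Prior to lysis, compound was applied to FaDu cells for 1 h (0.3% DMSO), followed by 2 h of 1 μg/mL neocarzinostatin. IC50 values were fitted from log concentration versus % inhibition normalized to DMSO and NCS controls.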

[7] = Microsomal stability assay, human liver microsomes; format: in vitro ADME
Procedure: Samples were then mixed and centrifuged. Supernatants were used for HPLC-MS/MS analysis. […] Peak areas corresponding to the test compound were recorded.

[8] = Hepatocyte stability assay, human hepatocytes; format: in vitro ADME; conditions: both sexes, human, cryopreserved hepatocytes, pH 7.3; Example 11
Procedure: (§3) Cryopreserved mouse hepatocytes were obtained from a pool of 10 or more male CD-1 mice. Cryopreserved human hepatocytes were obtained from a pool of 10 or more donors of mixed gender. Final hepatocyte density was 0.7 million viable cells per mL and test compound concentration was 1 uM with a maximum of 0.01% DMSO. Cryopreserved hepatocytes were thawed, washed, and resuspended in Krebs-Heinslet buffer (pH 7.3). The reaction was initiated by adding the test compound into cell suspension and incubated for 0, […], 1, 1.5, and 2 h, respectively, at 37° C./5% CO2. The reaction was stopped by adding acetonitrile into the incubation mixture. Samples were then mixed, transferred completely to another 96-well plate, and centrifuged. Supernatants were used for HPLC-MS/MS analysis. […] Peak areas corresponding to the test compound were recorded.

[9] = Hepatocyte stability assay, mouse hepatocytes; format: in vitro ADME; conditions: male, CD-1, mouse, cryopreserved hepatocytes, pH 7.3, Example 11
Procedure: as §3

[10] = Example 7, spheroid, cell line HCT115 [sic], 20% O2, read-out: EC50 (pDNA-PK inhibition, immunohistochemical endpoint)
[11] = Example 8, spheroid, read-out: Cell line: HCT116 Immunohistochemical endpoint pDNA-PK inhibition EC50
[12] = Example 9 Study 2, 20% O2, read-out: Spheroid Cell line: HCT116 Immunohistochemical endpoint pDNA-PK inhibition EC50
[13] = Example 8, spheroid, read-out: Cell line: FaDU Immunohistochemical endpoint pDNA-PK inhibition EC50
[14] = Example 9 Study 2, 20% O2, read-out: Spheroid Cell line: FaDU Immunohistochemical endpoint pDNA-PK inhibition EC50
[15] = 0.1 mg/mL microsomes, 0.1 uM compound

| EC50 [1, 10] [nM] | EC50 [1, 11] [nM] | EC50 [1, 12] [nM] | EC50 [2, 13] [nM] | EC50 [2, 14] [nM] | Microsomal Stability (mouse) % rem. 60 min [4] | microsomal CLint at 0.1 uM [4, 15] [µL/min/mg] | IC50 ([5]; Table 1) [nM] | IC50 ([6]; Table 1) [nM] | Microsomal Stability (human) % rem. 60 min ([7]; Example 11, 60 min) | microsomal CLint at 0.1 uM ([7]; both sexes, human, liver microsomes, pH 7.4, Example 11) [µL/min/mg] | hepatocyte CLint at 1 uM [8] [µL/min/1e6 cells] | Microsomal Stability (mouse) % rem. 60 min ([4]; Example 11) | microsomal CLint at 0.1 uM ([4]; Example 11) [µL/min/mg] | IC50 ([5]; Table 2) [nM] | hepatocyte CLint at 1 uM [9] [µL/min/1e6 cells] | IC50 ([6]; Table 2) [nM] | SMILES | EC50 ([3]; Example 8, spheroid, read-out: Cell line: HCT116 Colony forming endpoint Surviving Fraction EC50) [nM] | EC50 ([3]; Example 9 Study 2, read-out: Spheroid Cell line: HCT116 Colony forming endpoint Surviving Fraction EC50) [nM] |
| --- | --- | --- | --- | --- | --- | --- | --- | --- | --- | --- | --- | --- | --- | --- | --- | --- | --- | --- | --- |
| 1000 to 10000 | 1000 to 10000 | 1000 to 10000 | 500 to 1000 | 500 to 1000 | – | – | – | – | – | – | – | – | – | – | – | – | Brc1cnc2cc(N3CCOCC3)nc(O[C@H]3CC[C@@H](n4ccnc4)CC3)c2c1 [Compound 10, 4-(5-(((1s,4s)-4-(1H-imidazol-1-yl)cyclohexyl)oxy)-3-bromo-1,6-naphthyridin-7-yl)morpholine] | 500 to 1000 | 500 to 1000 |
| 1000 to 10000 | 1000 to 10000 | 1000 to 10000 | 500 to 1000 | 500 to 1000 | E (% remaining = 0-25%) | > 116 | < 0.5 | < 100 | – | – | – | – | – | – | – | – | FC(F)(F)c1cn([C@H]2CC[C@@H](Oc3nc(N4CCOCC4)cc4ncccc34)CC2)cn1 [Compound 17k, 4-(5-(((1s,4s)-4-(4-(trifluoromethyl)-1H-imidazol-1-yl)cyclohexyl)oxy)-1,6-naphthyridin-7-yl)morpholine] | – | – |
| 10 to 500 | 10 to 500 | 10 to 500 | 10 to 500 | 10 to 500 | E (% remaining = 0-25%) | > 116 | < 0.5 | 100 to 1000 | – | – | – | – | – | – | – | – | c1cnc2cc(N3CCOCC3)nc(O[C@H]3CC[C@@H](Nc4cnccn4)CC3)c2c1 [Compound 23, N-((1s,4s)-4-((7-Morpholino-1,6-naphthyridin-5-yl)oxy)cyclohexyl)pyrazin-2-amine] | – | – |
| 1000 to 10000 | 1000 to 10000 | 1000 to 10000 | 1000 to 10000 | 1000 to 10000 | F (% remaining = 25-50%) | > 116 | 0.5 to 1 | 100 to 1000 | – | – | – | – | – | – | – | – | c1ccc(N[C@H]2CC[C@@H](Oc3nc(N4CCOCC4)cc4ncccc34)CC2)nc1 [Compound 25, N-((1s,4s)-4-((7-morpholino-1,6-naphthyridin-5-yl)oxy)cyclohexyl)pyridin-2-amine] | – | – |
| 1000 to 10000 | 1000 to 10000 | 1000 to 10000 | 10 to 500 | 10 to 500 | E (% remaining = 0-25%) | > 116 | 0.5 to 1 | 100 to 1000 | – | – | – | – | – | – | – | – | c1cnc2cc(N3CCOCC3)nc(O[C@H]3CC[C@@H](Nc4ccncc4)CC3)c2c1 [Compound 27, N-((1s,4s)-4-((7-morpholino-1,6-naphthyridin-5-yl)oxy)cyclohexyl)pyridin-4-amine] | – | – |
| 1000 to 10000 | 1000 to 10000 | 1000 to 10000 | 500 to 1000 | 500 to 1000 | E (% remaining = 0-25%) | > 116 | < 0.5 | < 100 | – | – | – | – | – | – | – | – | O=C(N[C@H]1CC[C@@H](Oc2nc(N3CCOCC3)cc3ncccc23)CC1)c1ccc(F)cc1 [Compound 111, 4-Fluoro-N-((1s,4s)-4-((7-morpholino-1,6-naphthyridin-5-yl)oxy)cyclohexyl)benzamide] | – | – |
| 10 to 500 | 10 to 500 | 10 to 500 | 10 to 500 | 10 to 500 | E (% remaining = 0-25%) | > 116 | < 0.5 | 100 to 1000 | – | – | – | – | – | – | – | – | COc1ccc(C(=O)N[C@H]2CC[C@@H](Oc3nc(N4CCOCC4)cc4ncccc34)CC2)cc1 [Compound 112, 4-Methoxy-N-((1s,4s)-4-((7-morpholino-1,6-naphthyridin-5-yl)oxy)cyclohexyl)benzamide] | – | – |
| 1000 to 10000 | 1000 to 10000 | 1000 to 10000 | 1000 to 10000 | 1000 to 10000 | E (% remaining = 0-25%) | > 116 | 0.5 to 1 | 100 to 1000 | – | – | – | – | – | – | – | – | Nc1cnc2cc(N3CCOCC3)nc(O[C@H]3CC[C@@H](n4ccnc4)CC3)c2c1 [Compound 160, 5-(((1s,4s)-4-(1H-imidazol-1-yl)cyclohexyl)oxy)-7-morpholino-1,6-naphthyridin-3-amine] | – | – |
| – | – | – | – | – | – | – | – | – | H (% remaining = 75-100%) | < 116 | < 8.2 | G (% remaining = 50-75%) | < 116 | < 0.5 | > 8.2 | < 100 | CS(=O)(=O)Nc1cnc2cc(N3CCOCC3)nc(O[C@H]3CC[C@@H](Nc4ncc(C#N)cn4)CC3)c2c1 [LFA025, N-[5-[4-[(5-Cyanopyrimidin-2-yl)amino]cyclohexoxy]-7-morpholino-1,6-naphthyridin-3-yl]methanesulfonamide] | – | – |
